Test results as given in patent US12414994B2, “Compositions comprising lopinavir and treatment of conditions” (DOUGLAS PHARMACEUTICALS LIMITED, priority 2019, dated 2025).
Read-outs that look alike come from different tables or passages of the source.

How the values were obtained:
HSV2 strain HG52 = test: HSV2 replication assay in N-Tert keratinocytes (anti-HSV immunostaining); type: cell-based; settings: for effect against HSV2 replication: FIG. 2B
Method: (§1) Cell Culture; Telomerase immortalised N-Tert human foreskin Keratinocyes were maintained in standard T-75 tissue culture flasks (Corning, USA) in 25 ml of Keratinocyte serum-free medium (KSFM) supplemented with L-glutamine, 0.2 ng/ml epidermal growth factors (EGF) and 25 μg/mL bovine pituitary extract (BPE) (Gibco, Invitrogen, UK). These were maintained at 37° C. in a humidified atmosphere of 5% CO2 and the medium was changed every 2 days as required. For routine sub-culture the medium was aspirated, cells washed with PBS (Gibco-Invitrogen, UK) and 2 ml of Cell Culture Grade Trypsin 0.05% solution with EDTA (Gibco-Invitrogen, UK) added to each flask which was incubated at 37° C./5% CO2 for 10 minutes. A 10 ml aliquot of KSFM plus 10% foetal bovine serum (FBS) (Gibco-Invitrogen, UK) was then added and the cells centrifuged at 6000 g for 6 minutes. The medium was aspirated and cells washed with 10 mls of PBS (Gibco Invitrogen, UK) followed by re-suspension in 10 mls of fresh KSFM and final a cell count carried out. HSV1 & 2 Replication Assays; T25 flasks (Corning, USA) were each seeded with 600,000 N-Tert cells in serum-free KSFM plus supplements and incubated at 37° C./5% CO2 until confluent (Approximately 72 hours). The medium was then aspirated and cells infected with either 25 μl aliquot of HSV2 strain HG52, 1 μl of HSV1 strain 17+ or a 5 μl aliquot of the acyclovir resistant HSV2 strain 132349 ACV-res (Public Health England, Porton Down, UK) in 0.5 ml of serum-free KSFM plus supplements for a period of 2 hours at 37° C./5% CO2. The volume of each HSV strain stock used was empirically determined as the amount required to produce pronounced cytopathic changes in infected control flasks over the time course of the experiment. A 9.5 ml aliquot of KSFM plus supplements was then added to each flask and cells infected with the HG52 or 17+ strains incubated overnight whereas cell infected with the 132349 ACV-res strain were incubated for 5 hours at 37° C./5% CO2. Stock solutions of each active pharmaceutical ingredient (API) were freshly prepared every week from dry powder (Douglas Pharna, NZ) dissolved volumetrically in DMSO at 100 mM and stored at −20° C. Appropriate final dilutions of these API stocks solutions were made in KSFM plus supplements such that the same volume of DMSO (2 μl) was added to each infected flask. Where mixed APIs were used, concentrations were calculated as w/w ratios. API treated HSV2 HG52 infected cells were then incubated for 48 hours, HSV1 17+ infected cells were incubated for 8 hours and HSV-2 132349 ACV-res infected cells were incubated for 12 hours prior to harvesting for immunostaining. A concentration of 5 μM Acyclovir (VWR International, UK) was also added as a comparator to flasks infected with HSV-2 132349 ACV-res in order to verify the acyclovir resistant nature of the strain. […] Harvesting & Immunostaining; Growth medium was decanted from each flask and placed into 15 ml universal tubes (Corning, USA) and the cells rinsed with 1 ml of 1×PBS which was pooled with the growth medium. A 1 ml aliquot of NB Cell Culture Grade Trypsin 0.05% solution with EDTA was added to each T-25 flask and cells incubated at 37° C./5% CO2 for 10 minutes. A 1 ml aliquot of FBS was added to the decanted growth medium plus PBS from the previous step and 2 ml of this was then added to each flask to inactivate the trypsin. The trypsinised cells were then pooled with the decanted growth medium and an aliquot taken for analysis of cell viability using Via-1 cassette NC3000 cell cytometer assays (CheoMetec A/S, Denmark). The remaining cells were centrifuged at 6000 g for 5 minutes, the medium aspirated and the cells re-suspended and washed with 10 ml of PBS followed by re-centrifugation. Finally the cells were re-suspended in 70% of ice-cold ethanol, stored overnight at 4° C. and a volume containing 60,000 cells was aliquoted into 1.5 ml Eppendorf tubes and centrifuged for 5 minutes at 5000 rpm. […]

[1] = cited from earlier work
HSV1 strain 17+ = test: HSV1 replication assay in N-Tert keratinocytes (anti-HSV immunostaining); type: cell-based; settings: for effect on HSV1 replication: pre-treatment virus incubation reduced by 2 hours, FIG. 5B; for effects on HSV1 replication: FIG. 4B
Method: as §1, with “trypsin.” for “trypsin. The trypsinised cells were then pooled with the decanted growth medium and an aliquot taken for analysis of cell viability using Via-1 cassette NC3000 cell cytometer assays (CheoMetec A/S, Denmark). The remaining cells were centrifuged at 6000 g for 5 minutes, the medium aspirated and the cells re-suspended and washed with 10 ml of PBS followed by re-centrifugation. Finally the cells were re-suspended in 70% of ice-cold ethanol, stored overnight at 4° C. and a volume containing 60,000 cells was aliquoted into 1.5 ml Eppendorf tubes and centrifuged for 5 minutes at 5000 rpm.”

herpesvirus = settings: Gantt et al. (2011) Table 1; cited from earlier work
[2] = test system: acyclovir resistant HSV2 strain 132349 ACV-res; test: Acyclovir resistant HSV2 replication assay in N-Tert keratinocytes; type: cell-based
Method: (§2) Cell Culture; Telomerase immortalised N-Tert human foreskin Keratinocyes were maintained in standard T-75 tissue culture flasks (Corning, USA) in 25 ml of Keratinocyte serum-free medium (KSFM) supplemented with L-glutamine, 0.2 ng/ml epidermal growth factors (EGF) and 25 μg/mL bovine pituitary extract (BPE) (Gibco, Invitrogen, UK). These were maintained at 37° C. in a humidified atmosphere of 5% CO2 and the medium was changed every 2 days as required. For routine sub-culture the medium was aspirated, cells washed with PBS (Gibco-Invitrogen, UK) and 2 ml of Cell Culture Grade Trypsin 0.05% solution with EDTA (Gibco-Invitrogen, UK) added to each flask which was incubated at 37° C./5% CO2 for 10 minutes. A 10 ml aliquot of KSFM plus 10% foetal bovine serum (FBS) (Gibco-Invitrogen, UK) was then added and the cells centrifuged at 6000 g for 6 minutes. The medium was aspirated and cells washed with 10 mls of PBS (Gibco Invitrogen, UK) followed by re-suspension in 10 mls of fresh KSFM and final a cell count carried out. HSV1 & 2 Replication Assays; T25 flasks (Corning, USA) were each seeded with 600,000 N-Tert cells in serum-free KSFM plus supplements and incubated at 37° C./5% CO2 until confluent (Approximately 72 hours). The medium was then aspirated and cells infected with either 25 μl aliquot of HSV2 strain HG52, 1 μl of HSV1 strain 17+ or a 5 μl aliquot of the acyclovir resistant HSV2 strain 132349 ACV-res (Public Health England, Porton Down, UK) in 0.5 ml of serum-free KSFM plus supplements for a period of 2 hours at 37° C./5% CO2. The volume of each HSV strain stock used was empirically determined as the amount required to produce pronounced cytopathic changes in infected control flasks over the time course of the experiment. A 9.5 ml aliquot of KSFM plus supplements was then added to each flask and cells infected with the HG52 or 17+ strains incubated overnight whereas cell infected with the 132349 ACV-res strain were incubated for 5 hours at 37° C./5% CO2. […] Where mixed APIs were used, concentrations were calculated as w/w ratios. […]

HSV-2 132349 ACV-res = settings: Houston et al (2017) Table 2; cited from earlier work
HSV1 17+ strain = settings: Houston et al (2017) Table 2; cited from earlier work
[3] = test system: labial or skin HSV lesions; settings: episodic topical application, cited from earlier work
[4] = test system: uninfected N-Tert keratinocytes; test: Cytotoxicity assay (Via-1 cassette viability); type: cell-based; settings: human, 48 h
Method: as §2

Cc1cccc(C)c1OCC(=O)N[C@@H](Cc1ccccc1)[C@@H](O)C[C@H](Cc1ccccc1)NC(=O)[C@H](C(C)C)N1CCCNC1=O (relative stereo) [lopinavir, [1S-[1R*(R*), 3R*, 4R*]]-N-[4-[(2,6-dimethylphenoxy0acetyl]amino]-3-hydroxy-5-phenyl-1-(phenylmethyl)pentyl]tetrahydro-alpha-(1-methylethyl)-2-oxo-1(2H)-pyrimidineacetamide]
effect against HSV2 replication compared with nelfinavir (HSV2 strain HG52; 20 μM): more effective against HSV2 replication than either 2 or 5 μM nelfinavir
HSV2 positive cells (anti-HSV antibody immunostaining images) (HSV2 strain HG52; 20 μM, 48 hours, FIG. 1B): Very few HSV2 positive cells
cytopathic effects of HSV2 infection (phase contrast morphology) (HSV2 strain HG52; 20 μM, 48 hours, N-Tert keratinocytes, FIG. 1A): virtually no cytopathic effects
percentage of virus positive cells (quantitative analysis of immune staining) (HSV2 strain HG52; 20 μM, FIG. 1C): marked reduction
solubility in water [1]: virtually insoluble in water
effect on HSV1 replication (HSV1 strain 17+; 20 μM): by far the greatest activity
effect on herpesvirus replication (herpesvirus): ineffective
number of virus positive cells ([2]; 10 μM, FIG. 6B (DMSO control 50%)): 10%
number of virus positive cells ([2]; 20 μM, FIG. 6B (DMSO control 50%)): 5%

CC(C)c1nc(CN(C)C(=O)N[C@H](C(=O)N[C@@H](Cc2ccccc2)C[C@H](O)[C@H](Cc2ccccc2)NC(=O)OCc2cncs2)C(C)C)cs1 (relative stereo) [ritonavir, 10-Hydroxy-2-methyl-5-(1-methylethyl)-1-[2-(1-methylethyl)-4-thiazolyl]-3,6-dioxo-8,11bis(phenylmethyl)-2,4,7,12-tetraazatridecan-13-oic acid, 5-thiazolylmethylester, [5S-(5R*,8R*,10R8,11R*)]]
effect on herpesvirus replication (herpesvirus): ineffective

Nc1nc2c(ncn2COCCO)c(=O)[nH]1 [Acyclovir, acyclovir]
concentration required for toxicity against this strain (HSV-2 132349 ACV-res): > 100 µM
concentration that proved very effective (HSV1 17+ strain): < 0.8 µM
improvement of healing times ([3]; 3-5% acyclovir cream): approximately 10%
number of virus positive cells ([2]; Acyclovir, FIG. 6B): did not, as expected reduce the number of virus positive cells

Cc1c(O)cccc1C(=O)N[C@@H](CSc1ccccc1)[C@H](O)CN1C[C@H]2CCCC[C@H]2C[C@H]1C(=O)NC(C)(C)C [nelfinavir]
effect against HSV2 replication (HSV2 strain HG52; 2 μM): less effective against HSV2 replication than 10 μM nelfinavir
effect against HSV2 replication (HSV2 strain HG52; 5 μM): less effective against HSV2 replication than 10 μM nelfinavir
effect against HSV2 replication (HSV2 strain HG52; 10 μM): as effective as 20 μM 12:1 Lop/Rit
effects on HSV1 replication (HSV1 strain 17+; 2 μM): very modest effects
effect on HSV1 replication (HSV1 strain 17+; 2 μM): no discernible effect
effects on HSV1 replication (HSV1 strain 17+; 10 μM): very modest effects
effect on HSV1 replication (HSV1 strain 17+; 10 μM): no discernible effect
effect on herpesvirus replication (herpesvirus): inhibitory effect on viruses
concentrations with significant toxic effects on eukaryotic cells [4]: above 2 μM
cell viability ([4]; 10 μM): < 60%
cell viability ([4]; 20 μM): about 40%

Nc1nc2c(ncn2CCC(CO)CO)c(=O)[nH]1 [penciclovir]
improvement of healing times ([3]; 1% penciclovir cream): approximately 10%
